Data published in patent US20060069132A1, “Azolecarboxamide herbicides” (priority 2004, published 2006).
Where two headings read alike, the source gives them in different places.

Assays:
eastern black nightshade = assay: Test C pre-/postemergence herbicide test; type: in vivo, Solanum ptycanthum; conditions: for Plant response rating (0 = no effect, 100 = complete control), Nightshade: 62 g ai/ha
Procedure, shortened: (§1)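 Pre/post spray; non-phytotoxic solvent + surfactant. Post-timing 1–4 leaves, 2–18 cm. Read-out: visual % control vs untreated, day 12–14, greenhouse.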

large crabgrass [1] = assay: Test A pre-/postemergence herbicide test; type: in vivo, Digitaria sanguinalis; conditions: for pest or weed control at 500 g/ha / pest or weed control at 2000 g/ha: Digitaria sanguinalis, 240 h; for pest or weed control at 500 g/ha: 500 g ai/ha; for pest or weed control at 2000 g/ha: 2000 g ai/ha
Procedure, shortened: (§2)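 Greenhouse injury scoring (0–100, complete control = 100) at approximately ten days follows simultaneous pre- and postemergence application. Soil received a directed spray after seeding; seedlings of 2–10 cm at the one- to two-leaf stage were sprayed to runoff.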

corn = assay: Test C pre-/postemergence herbicide test; type: in vivo, Zea mays
Procedure, shortened: as §1

large crabgrass [2] = assay: Test C pre-/postemergence herbicide test; type: in vivo, Digitaria sanguinalis; conditions: for Crabgrass, Large plant response rating: 500 g ai/ha
Procedure, shortened: as §1

johnsongrass = assay: Test C pre-/postemergence herbicide test; type: in vivo, Sorghum halepense; conditions: for Johnsongrass plant response rating: 500 g ai/ha
Procedure, shortened: as §1

redroot pigweed = assay: Test A pre-/postemergence herbicide test; type: in vivo, Amaranthus retroflexus; conditions: for pest or weed control at 500 g/ha / pest or weed control at 2000 g/ha: Amaranthus retroflexus, 240 h; for pest or weed control at 500 g/ha: 500 g ai/ha; for pest or weed control at 2000 g/ha: 2000 g ai/ha
Procedure, shortened: as §2

[3] = post-emergence, Postemergence, 0 to 100 scale, 0 no effect, 100 complete control, read-out: Plant response rating, Crabgrass, Large
[4] = post-emergence, Postemergence, 0 to 100 scale, 0 no effect, 100 complete control, read-out: Plant response rating, Pigweed
[5] = 250 g ai/ha, scale 0 to 100 (0 no effect, 100 complete control), visual, 12 to 14 days, preemergence
[6] = Postemergence, 250 g ai/ha, 0 to 100 scale, 0 no effect, 100 complete control
[7] = Postemergence, 1000 g ai/ha, 0 to 100 scale, 0 no effect, 100 complete control
[8] = Preemergence, 1000 g ai/ha, visual rating, 0 to 100 scale (0 no effect, 100 complete control)
[9] = preemergence, 250 g ai/ha, visual injury, 0 to 100 scale (0 no effect, 100 complete control)
[10] = 125 g ai/ha, scale 0-100, preemergence
[11] = Postemergence, 125 g ai/ha, scale 0 to 100, 0 no effect, 100 complete control
[12] = Postemergence, 250 g ai/ha, scale 0 to 100, 0 no effect, 100 complete control
[13] = postemergence, 62 g ai/ha, scale 0 to 100
[14] = Preemergence, scale 0 to 100, 0 no effect, 100 complete control

## CCOC(=O)c1cccc(NC(=O)c2cc(C(C)(C)C)nn2CC)c1 [Compound 80, ethyl 3-[[[3-(1,1-dimethylethyl)-1-ethyl-1H-pyrazol-5-yl]carbonyl]-amino]benzoate]
Eastern black nightshade; preemergence
  Plant response rating (0 = no effect, 100 = complete control), Nightshade: 10
Eastern black nightshade; pre-emergence, 31 g ai/ha, preemergence, scale 0 to 100, read-out: Plant response rating, Nightshade
  pest or weed control at 31 g/ha: 0%
Eastern black nightshade; pre-emergence, 125 g ai/ha, scale 0 (no effect) to 100 (complete control), visual, 12 to 14 days, read-out: Plant response rating, Nightshade
  pest or weed control at 125 g/ha: 10%
Large crabgrass [1]; [3]
  pest or weed control at 500 g/ha: 70%
  pest or weed control at 2000 g/ha: 90%
Large crabgrass [1]; pre-emergence, Preemergence, visual rating, 0 to 100 scale (0 no effect, 100 complete control), read-out: Crabgrass, Large plant response rating
  pest or weed control at 500 g/ha: 10%
Large crabgrass [1]; pre-emergence, Preemergence, 0 to 100 scale, 0 no effect, 100 complete control, read-out: Crabgrass, Large plant response rating
  pest or weed control at 2000 g/ha: 30%
corn; 62 g ai/ha, preemergence
  Plant response rating (0 = no effect, 100 = complete control), Corn: 0
corn; Zea mays, post-emergence, 312 h, Postemergence, 250 g ai/ha, scale 0 to 100, 0 no effect, 100 complete control
  Corn plant response rating (crop injury, 0 = no effect, 100 = complete kill) at 250 g/ha: 70%
corn; Zea mays, post-emergence, 312 h, postemergence, 125 g ai/ha, scale 0 to 100
  Corn plant response rating (crop injury, 0 = no effect, 100 = complete kill) at 125 g/ha: 70%
corn; Zea mays, post-emergence, 312 h, postemergence, 62 g ai/ha, scale 0 to 100
  Corn plant response rating (crop injury, 0 = no effect, 100 = complete kill) at 62 g/ha: 70%
corn; Zea mays, pre-emergence, 312 h, 31 g ai/ha, preemergence, scale 0 to 100
  Corn plant response rating (crop injury, 0 = no effect, 100 = complete kill) at 31 g/ha: 0%
corn; Zea mays, pre-emergence, 312 h, 125 g ai/ha, scale 0 (no effect) to 100 (complete control), visual, 12 to 14 days
  Corn plant response rating (crop injury, 0 = no effect, 100 = complete kill) at 125 g/ha: 10%
corn; Zea mays, pre-emergence, 312 h, 250 g ai/ha, scale 0 to 100 (0 no effect, 100 complete control), visual, 12 to 14 days
  Corn plant response rating (crop injury, 0 = no effect, 100 = complete kill) at 250 g/ha: 20%
Large crabgrass [2]; 62 g ai/ha, preemergence
  Plant response rating (0 = no effect, 100 = complete control), Crabgrass, Large: 0
Large crabgrass [2]; Digitaria sanguinalis, post-emergence, 312 h, Postemergence, 250 g ai/ha, scale 0 to 100, 0 no effect, 100 complete control, read-out: Plant response rating, Crabgrass, Large
  pest or weed control at 250 g/ha: 90%
Large crabgrass [2]; Digitaria sanguinalis, post-emergence, 312 h, postemergence, 62 g ai/ha, scale 0 to 100, read-out: Plant response rating, Crabgrass, Large
  pest or weed control at 62 g/ha: 90%
Large crabgrass [2]; Digitaria sanguinalis, pre-emergence, 312 h, 31 g ai/ha, preemergence, scale 0 to 100, read-out: Plant response rating, Crabgrass, Large
  pest or weed control at 31 g/ha: 0%
Large crabgrass [2]; Digitaria sanguinalis, pre-emergence, 312 h, 125 g ai/ha, scale 0 (no effect) to 100 (complete control), visual, 12 to 14 days, read-out: Plant response rating, Crabgrass, Large
  pest or weed control at 125 g/ha: 10%
Large crabgrass [2]; Digitaria sanguinalis, pre-emergence, 312 h, 250 g ai/ha, scale 0 to 100 (0 no effect, 100 complete control), visual, 12 to 14 days, read-out: Plant response rating, Crabgrass, Large
  pest or weed control at 250 g/ha: 10%
johnsongrass; 62 g ai/ha, preemergence
  Plant response rating (0 = no effect, 100 = complete control), Johnsongrass: 10
johnsongrass; Sorghum halepense, post-emergence, Postemergence, 250 g ai/ha, scale 0 to 100, 0 no effect, 100 complete control, read-out: Plant response rating, Johnsongrass
  pest or weed control at 250 g/ha: 90%
johnsongrass; Sorghum halepense, post-emergence, postemergence, 125 g ai/ha, scale 0 to 100, read-out: Plant response rating, Johnsongrass
  pest or weed control at 125 g/ha: 90%
johnsongrass; Sorghum halepense, post-emergence, postemergence, 62 g ai/ha, scale 0 to 100, read-out: Plant response rating, Johnsongrass
  pest or weed control at 62 g/ha: 80%
johnsongrass; Sorghum halepense, pre-emergence, 31 g ai/ha, preemergence, scale 0 to 100, read-out: Plant response rating, Johnsongrass
  pest or weed control at 31 g/ha: 0%
johnsongrass; Sorghum halepense, pre-emergence, 125 g ai/ha, scale 0 (no effect) to 100 (complete control), visual, 12 to 14 days, read-out: Plant response rating, Johnsongrass
  pest or weed control at 125 g/ha: 10%
Redroot pigweed; [4]
  pest or weed control at 500 g/ha: 100%
  pest or weed control at 2000 g/ha: 100%
Redroot pigweed; pre-emergence, Preemergence, visual rating, 0 to 100 scale (0 no effect, 100 complete control), read-out: Pigweed plant response rating
  pest or weed control at 500 g/ha: 70%
Redroot pigweed; pre-emergence, Preemergence, 0 to 100 scale, 0 no effect, 100 complete control, read-out: Pigweed plant response rating
  pest or weed control at 2000 g/ha: 90%

## CCNC(=O)c1cccc(NC(=O)c2cc(C(C)(C)C)nn2CC(F)(F)F)c1 [Compound 31]
Eastern black nightshade; preemergence
  Plant response rating (0 = no effect, 100 = complete control), Nightshade: 90
Eastern black nightshade; [5]
  Plant response rating, Nightshade: 100
Eastern black nightshade; Preemergence, 500 g ai/ha, scale 0 to 100, 0 no effect, 100 complete control
  Nightshade plant response rating: 100
Large crabgrass [1]; [6]
  Crabgrass, Large plant response rating: 30
Large crabgrass [1]; [7]
  Plant response rating, Crabgrass, Large: 40
Large crabgrass [1]; [8]
  Crabgrass, Large plant response rating: 45
Large crabgrass [1]; [9]
  Crabgrass, Large plant response rating: 20
corn; 62 g ai/ha, preemergence
  Plant response rating (0 = no effect, 100 = complete control), Corn: 0
corn; [10]
  Plant response rating, Corn: 20
corn; Postemergence, 500 g ai/ha, scale 0 to 100
  Corn plant response rating: 50
corn; [11]
  Plant response rating, Corn: 40
corn; [12]
  Plant response rating, Corn: 40
corn; [13]
  Plant response rating, Corn: 40
Large crabgrass [2]; 62 g ai/ha, preemergence
  Plant response rating (0 = no effect, 100 = complete control), Crabgrass, Large: 90
Large crabgrass [2]; [10]
  Plant response rating, Crabgrass, Large: 100
Large crabgrass [2]; [5]
  Plant response rating, Crabgrass, Large: 100
Large crabgrass [2]; Postemergence, scale 0 to 100
  Crabgrass, Large plant response rating: 70
Large crabgrass [2]; [11]
  Plant response rating, Crabgrass, Large: 60
Large crabgrass [2]; [12]
  Plant response rating, Crabgrass, Large: 60
Large crabgrass [2]; [14]
  Crabgrass, Large plant response rating: 100
Large crabgrass [2]; [13]
  Plant response rating, Crabgrass, Large: 50
johnsongrass; 62 g ai/ha, preemergence
  Plant response rating (0 = no effect, 100 = complete control), Johnsongrass: 0
johnsongrass; [10]
  Plant response rating, Johnsongrass: 30
johnsongrass; [5]
  Plant response rating, Johnsongrass: 70
johnsongrass; Postemergence, scale 0 to 100
  Johnsongrass plant response rating: 30
johnsongrass; [11]
  Plant response rating, Johnsongrass: 20
johnsongrass; [12]
  Plant response rating, Johnsongrass: 30
johnsongrass; [14]
  Johnsongrass plant response rating: 90
johnsongrass; [13]
  Plant response rating, Johnsongrass: 20
Redroot pigweed; [6]
  Pigweed plant response rating: 55
Redroot pigweed; [7]
  Plant response rating, Pigweed: 80
Redroot pigweed; [8]
  Pigweed plant response rating: 80
Redroot pigweed; [9]
  Pigweed plant response rating: 45
